Laboratory results reported in ChEMBL document CHEMBL1143442, “Inhibitors of the tyrosine kinase EphB4. Part 2: structure-based discovery and optimisation of 3,5-bis substituted anilinopyrimidines” (Bioorg Med Chem Lett, 2008).

What was measured:
[1] = target: T1, Ephrin type-B receptor 4 (Homo sapiens, UniProt P54760); experiment: Inhibition of Myc-His-tagged EphB4 expressed in CHOK1 cells assessed as phosphorylation by ELISA; type: cell-based, CHO-K1
T1 sequence (P54760 whole entry): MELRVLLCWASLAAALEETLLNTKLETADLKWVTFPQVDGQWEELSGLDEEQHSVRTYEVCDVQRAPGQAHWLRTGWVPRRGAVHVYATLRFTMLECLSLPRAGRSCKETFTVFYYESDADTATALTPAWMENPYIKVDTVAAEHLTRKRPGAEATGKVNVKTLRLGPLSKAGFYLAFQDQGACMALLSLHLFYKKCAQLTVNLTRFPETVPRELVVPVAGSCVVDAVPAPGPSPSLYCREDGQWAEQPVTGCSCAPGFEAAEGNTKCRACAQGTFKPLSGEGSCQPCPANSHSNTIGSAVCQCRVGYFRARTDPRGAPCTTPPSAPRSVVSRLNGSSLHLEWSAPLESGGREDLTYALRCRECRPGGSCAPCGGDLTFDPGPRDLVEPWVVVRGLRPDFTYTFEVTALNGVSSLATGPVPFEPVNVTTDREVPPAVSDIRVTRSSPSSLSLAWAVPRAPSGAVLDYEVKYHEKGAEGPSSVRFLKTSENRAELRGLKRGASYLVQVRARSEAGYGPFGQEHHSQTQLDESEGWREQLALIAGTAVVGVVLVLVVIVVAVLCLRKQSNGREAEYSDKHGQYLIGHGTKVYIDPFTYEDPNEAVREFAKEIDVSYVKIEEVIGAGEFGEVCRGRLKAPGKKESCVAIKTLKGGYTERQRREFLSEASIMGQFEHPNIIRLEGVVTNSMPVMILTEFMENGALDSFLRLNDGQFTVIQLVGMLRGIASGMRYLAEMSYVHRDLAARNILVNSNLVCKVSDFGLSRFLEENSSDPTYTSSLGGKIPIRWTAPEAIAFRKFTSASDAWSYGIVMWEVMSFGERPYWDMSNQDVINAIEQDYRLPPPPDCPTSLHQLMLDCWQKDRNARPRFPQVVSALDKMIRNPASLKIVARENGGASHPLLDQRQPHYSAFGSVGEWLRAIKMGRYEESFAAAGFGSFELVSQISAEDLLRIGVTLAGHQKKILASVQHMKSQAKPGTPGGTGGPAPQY

[2] = target: T1, Ephrin type-B receptor 4; experiment: Inhibition of EphB4

SMILES	IC50 [1] [nM]	IC50 [2] [nM]
NS(=O)(=O)c1cccc(Nc2nccc(Nc3c(Cl)ccc4c3OCO4)n2)c1	172	–
NC(=O)c1cc(Nc2nccc(Nc3c(Cl)ccc4c3OCO4)n2)cc(C(N)=O)c1	> 30000	77
CS(=O)(=O)c1cc(Nc2nccc(Nc3c(Cl)ccc4c3OCO4)n2)cc(C(N)=O)c1	22200	23
CS(=O)(=O)c1cc(Nc2nccc(Nc3c(Cl)ccc4c3OCO4)n2)cc(N2CCOCC2)c1	32	2
NC(=O)c1cccc(Nc2nccc(Nc3c(Cl)ccc4c3OCO4)n2)c1	900	–
NC(=O)c1cc(Nc2nccc(Nc3c(Cl)ccc4c3OCO4)n2)cc(N2CCOCC2)c1	887	13
CS(=O)(=O)Nc1cc(Nc2nccc(Nc3c(Cl)ccc4c3OCO4)n2)cc(N2CCOCC2)c1	170	2

Second part, the compound after the results:

IC50 [1] [nM]	IC50 [2] [nM]	SMILES
14100	1	CS(=O)(=O)Nc1cc(Nc2nccc(Nc3c(Cl)ccc4c3OCO4)n2)cc(S(N)(=O)=O)c1
7170	15	CS(=O)(=O)Nc1cc(Nc2nccc(Nc3c(Cl)ccc4c3OCO4)n2)cc(NS(C)(=O)=O)c1
209	114	CS(=O)(=O)c1cc(Nc2nccc(Nc3c(Cl)ccc4c3OCO4)n2)cc(S(C)(=O)=O)c1
> 30000	370	CS(=O)(=O)Nc1cc(Nc2nccc(Nc3c(Cl)ccc4c3OCO4)n2)cc(C(N)=O)c1
2050	12	CS(=O)(=O)Nc1cc(Nc2nccc(Nc3c(Cl)ccc4c3OCO4)n2)cc(S(C)(=O)=O)c1
